Assay results reported in patent publication US8084621B2, “3-Pyrrolo[b]cyclohexylene-2-dihydroindolinone derivatives and uses thereof” (Jiangsu Simcere Pharmaceutical R&D Co. Ltd., priority 2006, dated 2011).

Experiments:
Format in all cases: cell-based
[1] = test system: Human Gastric Cancer Cell Line (BGC); test: Tumor cell proliferation assay (MTT), BGC; conditions: for inhibition at 10 µM: concentration of 10^−5 mol/L, preliminary screening, 72 hours, read-out: Inhibition rate % BGC; for IC50: secondary screening, 48 hours
Description: (§1) The assay used generally is the blue tetrazolium bromide (MTT) method. […] The amount of formazan can be detected by the microplate reader through the absorption value at 570 nm. The amount of formazan product generated is proportional to the number of living cells in the sample, so the OD value may reflect the number of living cells and the ability of a test drug to inhibit or kill cells. The MTT assay may be used in determining the ability of different compounds of the present invention to inhibit one or more cancer cells proliferation. Similar assays can be designed along the same lines for any cancer cell using techniques well known in the art.
(§2) The assay used generally is the blue tetrazolium bromide (MTT) method. […] Intracellular purple formazan salt crystals can be solved in DMSO and the absorption value at 570 nm is detected by the microplate reader, then the number of living cells can be detected indirectly. So MTT assay may be used to determine the ability of a compound of the present invention to inhibit cell proliferation. Similar assays can be designed along the same lines for any cancer cell using techniques well known in the art.
2.2.1 Human Gastric Cancer Cell Line (BGC)
(§3) The cells of the 2.2.1, 2.2.2, 2.2.3, 2.2.4, 2.2.5 cultured with RPMI 1640 containing 12% calf serum in the condition of 37° C., 5% CO2.
(§4) 2.3.1 Cell seeding: Trypsinize the cell by 0.05% trypsin-EDTA and add RPMI 1640 medium (DMEM or 5A) containing 12% calf serum. Count the number, then dilute to 1.67×10^4/ml. Add 180 ul/well to the 96 well plate (3000 cells/well).
(§5) 2.3.2 Culture: cells are incubated for 24 hours at 37° C. under 5% CO2.
(§6) 2.3.3 Preliminary screening: The compounds are firstly diluted to 0.1 mol/L with DMSO, and then diluted to three concentrations of 10^−5 mol/L, 10^−6 mol/L and 10^−7 mol/L. Add 20 ul test compounds to the 96 well plate and incubate for 72 hours. Each group has three parallel wells and all experiments repeat three times. Each inhibition ratio is calculated, then an average value of three times is taken as the measured value. 2.3.4 Staining 2.3.4.1 Attached cell: add 20 ul/well MTT to the 96-well plates; incubate for 4 hours in the incubator. Pour out the culture medium in the well and add 100 ul/well DMSO. Shake the plate for 5 min. 2.3.4.2 Suspension cell: add 20 ul/well MTT to the 96-well plates; incubate for 4 hours in the incubator. Add 50 ul/well 20% SDS and incubate for overnight in the incubator. 2.3.5 Reading the plates: read the absorbance A570-A630 with the Infinite M200 microtiter plate reader. Calculate the inhibition ratio of the test compounds. 2.3.6 Secondary screening: the compounds whose inhibition ratio is greater than 50% at the concentrations of 10^−5 mol/L in the preliminary screening will be picked out for Secondary screening. Dilute these compounds to ten concentrations: 10^−5 mol/L, 0.5×10^−5 mol/L, 10^−6 mol/L, 0.8×10^−6 mol/L, 0.6×10^−6 mol/L, 0.4×10^−6 mol/L, 0.2×10^−6 mol/L, 10^−7 mol/L, 0.8×10^−7 mol/L and 0.4×10^−7 mol/L. Add 20 ul test compound solution to the 96 well plate and incubate for 48 hours. Each group has three parallel wells and all experiments repeat for three times. Read the plates and calculate the inhibition ratio according to the preliminary screening method. 2.3.7 Calculate the Inhibition Ratio of Cell Proliferation and the IC50
(§7) According to the inhibition ratio of cell proliferation at the different concentrations of the compound, inhibition ratio of 50% of the test compound is calculated through the logarithm of the concentration of the compound with the Logit [I] linear regression, and an average value of three times is taken as the measured value of a sample.

[2] = test system: Human Pancreatic Carcinoma Cells (PANC-1); test: Tumor cell proliferation assay (MTT), PANC-1; conditions: for inhibition at 10 µM: concentration of 10^−5 mol/L, preliminary screening, 72 hours, read-out: Inhibition rate % PANC-1; for IC50: secondary screening, 48 hours
Description: as §1, §2
2.2.4 Human Pancreatic Carcinoma Cells (PANC-1)
as §3, §4, §5, §6, §7

[3] = test system: Human Colon Cancer Cell Line (HT-29); test: Tumor cell proliferation assay (MTT), HT29; conditions: for inhibition at 10 µM: concentration of 10^−5 mol/L, preliminary screening, 72 hours, read-out: Inhibition rate % HT29; for IC50: secondary screening, 48 hours
Description: as §1, §2
2.2.11 Human Colon Cancer Cell Line (HT-29);
(§8) The cells of 2.2.11, 2.2.12, 2.2.13 were cultured in MC COYS 5-A medium containing 12% fetal bovine serum in the condition of 37° C., 5% CO2.
as §4, §5
as §6, with “2.3.6 Secondary screening: the compounds whose inhibition ratio is greater than 50% at the concentrations of 10^−5 mol/L in the preliminary screening will be picked out for Secondary screening.” left out
as §7

[4] = test system: Human Non-Small Cell Lung Cancer Cell Line (A549); test: Tumor cell proliferation assay (MTT), A549; conditions: for inhibition at 10 µM: concentration of 10^−5 mol/L, preliminary screening, 72 hours, read-out: Inhibition rate % A549; for IC50: secondary screening, 48 hours
Description: as §1, §2
2.2.2 Human Non-Small Cell Lung Cancer Cell Line (A549)
as §3, §4, §5, §6, §7

[5] = test system: Human Ovarian Cancer Cell Line (SK-OV-3); test: Tumor cell proliferation assay (MTT), SK-OV-3; conditions: for inhibition at 10 µM: concentration of 10^−5 mol/L, preliminary screening, 72 hours, read-out: Inhibition rate % SK-OV-3; for IC50: secondary screening, 48 hours
Description: as §1, §2
2.2.13 Human Ovarian Cancer Cell Line (SK-OV-3).
as §8, §4, §5, §6, §7

SMILES	IC50 [1] [µM]	IC50 [2] [µM]	IC50 [3] [µM]	IC50 [5] [µM]	IC50 [4] [µM]	inhibition at 10 µM [1] [%]	inhibition at 10 µM [2] [%]	inhibition at 10 µM [3] [%]	inhibition at 10 µM [4] [%]	inhibition at 10 µM [5] [%]
Cc1[nH]c2c(c1C(=O)NCCO)CCC/C2=C1/C(=O)Nc2ccc(F)cc21 [I-9, N-(2-hydroxyethyl)-2-methyl-7-[1,2-dihydro-5-fluoro-2-oxo-3H-indol-(Z)-3-ylidene]-4,5,6,7-tetrahydro-1H-indole-3-carboxamide]						42.1	0	66.7	16.3	
CCN(CC)CCNC(=O)c1c(C)[nH]c2c1CCC/C2=C1/C(=O)Nc2ccc(F)cc21 [I-2, N-(2-(diethylamino)ethyl)-2-methyl-7-[1,2-dihydro-5-fluoro-2-oxo-3H-indol-(Z)-3-ylidene]-4,5,6,7-tetrahydro-1H-indole-3-carboxamide]	6.11		1.2			71	70.6	97.4	10.2	92.2
Cc1[nH]c2c(c1C(=O)N1CCN(C)CC1)CCC/C2=C1/C(=O)Nc2ccc(F)cc21 [I-14, 2-methyl-3-(4-methylpiperazine-1-carbonyl)-7-[1,2-dihydro-5-fluoro-2-oxo-3H-indol-(Z)-3-ylidene]-4,5,6,7-tetrahydro-1H-indole]						39.4	14	43.3	4.43	
CCN(CC)CCNC(=O)c1c(C)[nH]c2c1CCC/C2=C1/C(=O)Nc2ccc(C)cc21 [I-4, N-(2-(diethylamino)ethyl)-2-methyl-7-[1,2-dihydro-5-methyl-2-oxo-3H-indol-(Z)-3-ylidene]-4,5,6,7-tetrahydro-1H-indole-3-carboxamide]				5.27	1.01			89.9	67.5	57.1

Second part, led by results:

IC50 [1] [µM]	IC50 [2] [µM]	IC50 [3] [µM]	IC50 [5] [µM]	IC50 [4] [µM]	SMILES	inhibition at 10 µM [1] [%]	inhibition at 10 µM [2] [%]	inhibition at 10 µM [3] [%]	inhibition at 10 µM [4] [%]	inhibition at 10 µM [5] [%]
2.76	6.63	3.06	3.04		Cc1[nH]c2c(c1C(=O)NCCCN(C)C)CCC/C2=C1/C(=O)Nc2ccc(Cl)cc21 [I-7, N-(3-(dimethylamino)propyl)-2-methyl-7-[1,2-dihydro-5-chloro-2-oxo-3H-indol-(Z)-3-ylidene]-4,5,6,7-tetrahydro-1H-indole-3-carboxamide]	75.9	51.8	78.4		63.3
1.49	1.63	0.93	1.14	1.03	Cc1[nH]c2c(c1C(=O)NCC(O)CN1CCCC1)CCC/C2=C1/C(=O)Nc2ccccc21 (centres unmarked) [I-70, N-(2-hydroxy-3-(pyrrolidin-1-yl)propyl)-2-methyl-7-[1,2-dihydro-2-oxo-3H-indol-(Z)-3-ylidene]-4,5,6,7-tetrahydro-1H-indole-3-carboxamide]	84.8	97.4	94.7	76.3	95.6
7.95		0.42			Cc1[nH]c2c(c1C(=O)NCC(O)CN1CCCCC1)CCC/C2=C1/C(=O)Nc2ccc(F)cc21 (centres unmarked) [I-74, N-(2-hydroxy-3-(piperidin-1-yl)propyl)-2-methyl-7-[1,2-dihydro-5-fluoro-2-oxo-3H-indol-(Z)-3-ylidene]-4,5,6,7-tetrahydro-1H-indole-3-carboxamide]	60.2	93.6	92.2	1.27	88.2
		4.38			Cc1[nH]c2c(c1C(=O)NCCN(C)C)CCC/C2=C1/C(=O)Nc2ccc(F)cc21 [I-6, N-(2-(dimethylamino)ethyl)-2-methyl-7-[1,2-dihydro-5-fluoro-2-oxo-3H-indol-(Z)-3-ylidene]-4,5,6,7-tetrahydro-1H-indole-3-carboxamide]	32.3	19.8	61.9		32.2
